Reference: patent US9988416B2, “Alkynyl nucleoside analogs as inhibitors of human rhinovirus” (NOVARTIS AG, priority 2016, dated 2018)

What was measured:
[1] = target: T1, Human Mitochondrial RNA polymerase (POLRMT) (Homo sapiens, UniProt O00411); assay: Human mitochondrial RNA polymerase single nucleotide incorporation assay; type: biochemical; settings: 500 μM nucleoside triphosphate, 5 min at RT
T1 construct: Purified full length POLRMT (Enzymax, USA); purchased Enzymax
Procedure: Human Mitochondrial RNA Polymerase Assay.
Human mitochondrial RNA polymerase (POLRMT) single nucleotide Incorporation assay was adapted from Arnold et al. (Sensitivity of mitochondrial transcription and resistance of RNA polymerase II dependent nuclear transcription to antiviral ribonucleosides. PloS Pathogen 8(11):e1003030.). Briefly, elongation complexes were formed by incubating 500 nM POLRMT with 250 nM annealed DNA template/RNA primer duplex, in assay buffer (25 mM Tris-HCl, pH 8, 50 mM KCl, 10 mM MgCl2, 1 mM dithiothreitol, 0.2 U/μL RNasin) for 1.5 min at room temperature (RT), followed by rapid mixing with 500 μM nucleoside triphosphate substrate or inhibitor. Purified full length POLRMT (Enzymax, USA) was stored in 10 mM Tris-HCl (pH 8.0), 1 mM DTT, 100 mM NaCl and 20% glycerol. The volume of POLRMT added to any reaction was always less than or equal to one-tenth the total volume. Primer-template consisted of a 5′-FAM labeled […] RNA oligonucleotide primer SEQ. ID. NO. 2 (5′-UUUUGCCGCGCC-3′) annealed to the appropriate 18-mer DNA template to allow single addition of A, C, G or U ribonucleotide (Arnold et al. 2012). […] Electrophoresis was performed in 1×TBE buffer at 600 V. Gels were visualized with a Typhoon Imager under fluorescence detection mode and quantified with the Image Quant TL Software (GE Healthcare, Piscataway, N.J.). […]

Chikungunya virus = assay: Activity on Chikungunya virus; type: cell-based; settings: read-out: Activity on HRV strains and other viruses: Chikungunya virus
HepG2 [2] = assay: Cox/SDH ratio assay in HepG2 cells; type: cell-based; settings: Cellular assays (MP-Nuc); concentration giving Cox/SDH ratio <0.5, HepG2 cells
PC3 = PC3 cytotoxicity assay; type: cell-based; settings: 3 or 5 days at 37° C., CellTiter-Glo
Procedure: (§1) MT4 and PC3 Cytotoxicity Assay. Compounds were serially diluted in DMSO in half-logarithmic steps starting from 10 mM. 0.5 μL of serially diluted compound was transferred to the assay plates (Greiner cat#781080). Cells were added to the assay-ready compound plates in 50 μL of RPMI 1640 medium supplemented with 10% FBS (NCS Lot OS-161071), 1× penicillin/streptomycin solution (CellGro/Mediatech, Manassas, Va.; 30-002-CI), and incubated at 37° C. for 3 or 5 days. Control wells included DMSO alone (100% inhibition). Cell viability was determined using the CellTiter-Glo® Luminescent Cell Viability Assay (Promega, G7573) according to the manufacturer's protocol and a POLARstar Omega Luminometer (BMG Labtech).

MT4 = MT4 cytotoxicity assay; type: cell-based; settings: N = 2; 3 or 5 days at 37° C., CellTiter-Glo
Procedure: as §1

Dengue virus (PBMCs) = assay: Activity on Dengue virus in PBMCs; type: cell-based; settings: PBMC, read-out: Activity on HRV strains and other viruses: Dengue virus (PBMCs)
HRV15 (c-type) = assay: HRV replicon assay (Group C replicon); type: cell-based; settings: Human rhinovirus sp., HRV15, H1-HeLa, read-out: Activity on HRV strains and other viruses: HRV15 (c-type)
Procedure: This assay was based on the Group C replicon previously described (Mello et al, Antimicrobial Agents and Chemotherapy, 2014) with the modification that the P1 region was replaced with the cDNA encoding Nanoluciferase (Promega Corporation, Madiso, Wis.) Compounds were serially diluted in DMSO in half-logarithmic steps starting from 5 mM. Of each dilution, 0.5 μL were transferred to the assay plates. H1-HeLa cells were trypsinized, washed twice with ice-cold OptiMem® Gibco, 31985), resuspended at 1.5×10^7 cells/ml in OptiMem®, and stored on ice. A total of 6×10^6 cells were electroporated (270 V, 950 μF, ∞ resistance) with 25 ng of in vitro-transcribed RNA and allowed to rest on ice for 10 min. Electroporated cells were then diluted DMEM supplemented with 0.1% BSA (Gibco, 15260), 1× penicillin/streptomycin solution (CellGro/Mediatech, Manassas, Va.; 30-002-CI) to a final concentration 4×10^5 cells/ml. 50 μl of cells were then added to the compounds then incubated for […] at 33° C. Luciferase signal was then measured after 48 h using the NanoGlo® Detection Kit Assay (Promega, N1150) according to the manufacturer's protocol and a POLARstar Omega Luminometer (BMG Labtech).

PC-3 = assay: Cox/SDH ratio assay in PC-3 cells; type: cell-based; settings: Cellular assays (MP-Nuc); concentration giving Cox/SDH ratio <0.5, PC-3 cells
HepG2 [3] = assay: Cytotoxicity (CC50 assay) in HepG2; type: cell-based; settings: N = 7+; CC50, 72 hours, Cell-Titer Glo
Procedure: (§2) Cytotoxicity (CC50 Assay) in HepG2 & K562 White TC grade Greiner 384-well assay plates were stamped with 0.5 ul of compound in 90% DMSO/10% water. HepG2 cells were trypsinized and collected into 50 ml falcon tube. K562 suspension cells were collected in 50 ml falcon tube. Both tubes containing cells were spun in benchtop centrifuge at 1200 rpm for 5 mins. The supernatant was discarded and the cell pellet was re-suspended in fresh culture media (HepG2: DMEM:F12 mix+10% FBS+1% Pen/Strep & K562: IMDM+10% FBS+1% Pen-Strep). Cells were counted using a hemocytometer and cells were diluted to a working suspension of 50,000 cells/ml for HepG2, and 20,000 cells/ml for K562. 50 ul of cells suspension was added to each well of 384-assay plate. Assay plates were incubated at 37° C., 5% CO2, 90% humidity incubator for 72 hours. Assay plates were then treated with 25 ul of Promega's Cell-Titer Glo® reagent, and incubated at room temperature for 10 mins. Plates were read on PolarStar-Omega using the Luminescence setting and a Gain of 3300.

HRV39 = assay: HRV cytopathic effect (CPE) assay; type: cell-based; settings: Human rhinovirus sp., H1-HeLa cells, 72 h at 33° C., CellTiter-Glo, read-out: Activity on HRV strains and other viruses: HRV39
Procedure: (§3) HRV Cytopathic Effect (CPE) Assay.
(§4) Compounds were serially diluted in DMSO in half-logarithmic steps starting from 5 mM. Of each dilution, 0.5 μL were transferred to the assay plates. H1-HeLa cells were added to the assay-ready compound plates in 45 μL DMEM supplemented with 0.1% BSA (Gibco, 15260), 1× penicillin/streptomycin solution (CellGro/Mediatech, Manassas, Va.; 30-002-CI), and 1× non-essential amino acids (CellGro; 25-025-CI) at 5000 cells/well into triplicate 384-well plates and incubated at 33° C. for 6 hours. Control wells included DMSO alone (100% inhibition) and DMSO plus virus (0% inhibition). After 6 h incubation at 33° C., 5 μL of human rhinovirus stock was added at an MOI that effectively kills 99% of cells within 72 hours. Plates were then incubated for 72 h at 33° C. Cell viability was determined using the CellTiter-Glo® Luminescent Cell Viability Assay (Promega, G7573) according to the manufacturer's protocol and a POLARstar Omega Luminometer (BMG Labtech).

HRV29 = assay: HRV cytopathic effect (CPE) assay; type: cell-based; settings: Human rhinovirus sp., H1-HeLa cells, 72 h at 33° C., CellTiter-Glo, read-out: Activity on HRV strains and other viruses: HRV29
Procedure: as §3, §4

HRV14 = assay: HRV cytopathic effect (CPE) assay; type: cell-based; settings: Human rhinovirus sp., H1-HeLa cells, 72 h at 33° C., CellTiter-Glo, read-out: Activity on HRV strains and other viruses: HRV14
Procedure: as §3, §4

HRV16 = assay: HRV cytopathic effect (CPE) assay; type: cell-based; settings: Human rhinovirus sp., H1-HeLa cells, 72 h at 33° C., CellTiter-Glo, read-out: Activity on HRV strains and other viruses: HRV16
Procedure: as §3, §4

HRV10 = assay: HRV cytopathic effect (CPE) assay; type: cell-based; settings: Human rhinovirus sp., H1-HeLa cells, 72 h at 33° C., CellTiter-Glo, read-out: Activity on HRV strains and other viruses: HRV10
Procedure: as §3, §4

HRV86 = assay: HRV cytopathic effect (CPE) assay; type: cell-based; settings: Human rhinovirus sp., H1-HeLa cells, 72 h at 33° C., CellTiter-Glo, read-out: Activity on HRV strains and other viruses: HRV86
Procedure: as §3, §4

K562 = assay: Cytotoxicity (CC50 assay) in K562; type: cell-based; settings: N = 3; CC50, 72 hours, Cell-Titer Glo
Procedure: as §2

T1 sequence (O00411 42-1230): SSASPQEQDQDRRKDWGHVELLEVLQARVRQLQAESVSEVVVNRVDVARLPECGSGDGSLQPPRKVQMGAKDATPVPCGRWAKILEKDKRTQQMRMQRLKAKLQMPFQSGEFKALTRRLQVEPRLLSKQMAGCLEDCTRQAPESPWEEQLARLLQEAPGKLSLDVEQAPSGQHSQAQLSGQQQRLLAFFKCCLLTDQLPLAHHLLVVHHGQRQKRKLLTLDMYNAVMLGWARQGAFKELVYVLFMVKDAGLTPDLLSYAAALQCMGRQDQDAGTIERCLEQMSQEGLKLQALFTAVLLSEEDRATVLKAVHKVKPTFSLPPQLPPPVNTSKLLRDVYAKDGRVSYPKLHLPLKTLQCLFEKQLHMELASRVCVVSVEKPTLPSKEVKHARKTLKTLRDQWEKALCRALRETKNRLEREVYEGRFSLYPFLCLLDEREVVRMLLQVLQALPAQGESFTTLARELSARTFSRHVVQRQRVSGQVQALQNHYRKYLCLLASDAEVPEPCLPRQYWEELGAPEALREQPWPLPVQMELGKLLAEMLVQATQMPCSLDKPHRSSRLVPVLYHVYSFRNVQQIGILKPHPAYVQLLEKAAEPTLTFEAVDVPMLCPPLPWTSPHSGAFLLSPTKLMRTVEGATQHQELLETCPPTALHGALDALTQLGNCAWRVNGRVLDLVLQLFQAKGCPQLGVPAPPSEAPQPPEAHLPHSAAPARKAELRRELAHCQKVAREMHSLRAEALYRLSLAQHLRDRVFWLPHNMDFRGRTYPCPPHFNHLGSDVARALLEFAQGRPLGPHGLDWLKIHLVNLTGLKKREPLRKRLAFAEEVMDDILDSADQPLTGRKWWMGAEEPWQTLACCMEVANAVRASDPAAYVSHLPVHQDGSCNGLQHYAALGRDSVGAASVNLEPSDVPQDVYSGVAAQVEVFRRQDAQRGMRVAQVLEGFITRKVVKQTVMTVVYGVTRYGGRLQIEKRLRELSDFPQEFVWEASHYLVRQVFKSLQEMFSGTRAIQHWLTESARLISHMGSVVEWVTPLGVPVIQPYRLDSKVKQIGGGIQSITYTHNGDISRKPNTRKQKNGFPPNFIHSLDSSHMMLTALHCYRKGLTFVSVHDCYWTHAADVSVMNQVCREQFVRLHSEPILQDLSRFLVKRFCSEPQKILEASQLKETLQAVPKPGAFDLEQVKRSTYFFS

With `CC#C[C@]1(O)[C@H](n2ccc3c(N)ncnc32)O[C@](F)(COP(=O)(O)OP(=O)(O)OP(=O)(O)O)[C@H]1O` [Example 3] the “Human Mitochondrial RNA polymerase incorporation” value [1] was 1.9% (Examples).

With `CC#C[C@]1(O)[C@H](n2ccc3c(N)ncnc32)O[C@](F)(COP(=O)(OCOC(=O)OC(C)C)OCOC(=O)OC(C)C)[C@H]1O` [Example 2, ((2S,3S,4R,5R)-5-(4-amino-7H-pyrrolo[2,3-d]pyrimidin-7-yl)-2-fluoro-3,4-dihydroxy-4-(prop-1-yn-1-yl)tetrahydrofuran-2-yl)methyl bis(((1-isopropoxycarbonyl)oxy)methyl) phosphate] the EC50 (Chikungunya virus) was 1000 nM, the “HepG2 Cox/SDH ratio <0.5” value (HepG2 [2]) was >200 µM and the “Cytotoxicity Assay Results: PC3” value (PC3) was >200 µM. For the same compound, the “Cytotoxicity Assay Results: MT4” value (MT4) was >100 µM, the EC50 (Dengue virus (PBMCs)) was 2050 nM and the EC50 (HRV15 (c-type)) was 700 nM. For the same compound, the “PC-3 Cox/SDH ratio <0.5” value (PC-3) was >200 µM, the “Cytotoxicity Assay Results: HepG2” value (HepG2 [3]) was >100 µM and the EC50 (HRV39) was 600 nM. For the same compound, the EC50 (HRV29) was 700 nM, the EC50 (HRV14) was 700 nM and the EC50 (HRV16) was 600 nM. The EC50 (HRV10) was 800 nM, the EC50 (HRV86) was 400 nM and the “Cytotoxicity Assay Results: K562” value (K562) was >100 µM.

`C[C@@]1(F)[C@H](O)[C@@H](COP(=O)(O)OP(=O)(O)OP(=O)(O)O)O[C@H]1n1ccc(=O)[nH]c1=O` [Sofosbuvir TP, reference compound] was tested, and the “Human Mitochondrial RNA polymerase incorporation” value [1] was 1.9% (Sofosbuvir TP).

With `[N-]=[N+]=N[C@]1(CO)O[C@@H](n2ccc(N)nc2=O)[C@H](O)[C@@H]1O` [4′-Azido cytidine, 4′-azido-cytidine, reference compound] the “HepG2 Cox/SDH ratio <0.5” value (HepG2 [2]) was 200 µM and the “PC-3 Cox/SDH ratio <0.5” value (PC-3) was 25 µM.
